Source: patent EP1914304A1 (priority 1998, dated 1999)
pIC50: −log10 of the molar value.

Experiments:
[1] = system: Rat C6 cells expressing TK mutant SR26; test: Rat C6 kill curves with GCV and ACV; type: cell-based; conditions: Table VIII
Description: (§1) The seven mutants were subcloned into the mammalian expression vector, pREP8D7:dualGFP. This vector contains a constitutive metallothionin promoter, which drives the expression of green flourescent protein (GFP), and an RSV LTR promoter, which stimulated expression of the TK mutants. The vector also contains a histidinol resistance gene for selection of transformants. Purified vector DNA of these constructs was used to transfect BHK tk- cells by electroporation. The transfectants were selected by resistance to histidinol and sorted using FACS analysis for GFP expression. Pools of transfectants were then assayed for sensitivity to GCV or ACV over a range of prodrug doses. […] Table VIII illustrates the IC50 values from Rat C6 kill curves with the SR11, SR26, and SR39 mutants.

[2] = system: Rat C6 cells expressing TK mutant 411; test: Rat C6 kill curves with GCV and ACV; type: cell-based; conditions: Table VIII
Description: as §1

[3] = system: Rat C6 cells expressing TK mutant SR11; test: Rat C6 kill curves with GCV and ACV; type: cell-based; conditions: Table VIII
Description: as §1

[4] = system: Rat C6 cells expressing TK mutant 75; test: Rat C6 kill curves with GCV and ACV; type: cell-based; conditions: Table VIII
Description: as §1

[5] = system: Rat C6 cells expressing wild-type TK; test: Rat C6 kill curves with GCV and ACV; type: cell-based; conditions: Table VIII
Description: as §1

[6] = system: Rat C6 cells expressing TK mutant SR39; test: Rat C6 kill curves with GCV and ACV; type: cell-based; conditions: Table VIII
Description: as §1

[7] = system: Rat C6 cells expressing TK mutant 30; test: Rat C6 kill curves with GCV and ACV; type: cell-based; conditions: Table VIII
Description: as §1

[8] = system: ts13 BHK tk- cells transfected with pCMV:75 (HSV-1 TK mutant 75); test: Cell killing by GCV and ACV, Alamar Blue viability (ED50); type: cell-based, baby hamster; conditions: Mesocricetus auratus, 96 h; effective dose for 50% cell killing, after 4 days on nucleoside analog, pooled G418 resistant clones
Experimental: (§2) Briefly, the cell transfections are performed as follows. Approximately 5 x 10^5 ts13 BHK tk cells (ATCC CRL-1632) are plated on 100mm dishes in DMEM + 10% calf serum. For each transfection 1 µg of pSV2neo and 10µg of a pCMV construct (pCMV, pCMV:TK-wrong (HSVTK in the wrong orientation relative to the promoter), pCMV:HSVTK, pCMV:30, pCMV:75 or pCMV:132 DNA) in 0.25M CaCl2 are mixed with 0.5ml 2 x BBS (see Chen and Okayama) and preincubated at 37°C at 2.5% CO2 for […]. The CaCl2/DNA mix is added dropwise to the plates and mixed in well. After a 24 hour incubation at 37°C in a 2.5% CO2 wet incubator, the cells are rinsed twice with Dulbecco PBS minus Ca/Mg and fed with fresh DMEM + 10% calf serum. Plates are incubated at 37°C with 6% CO2. After 72 hours post-transfection the cells are split 1:3 and plated in DMEM + 10% calf serum containing G418 at 600µg/ml.
(§3) The cells are selected on G418 (600µg/ml) at 37°C for 17 days. […]. Approximately 30-40 clones are selected in this manner for each transfected DNA containing a tk gene in the correct orientation. The pCMV and pCMV:TK-wrong transfections yielded between 130 and 140 clones each. G418 resistant clones are harvested, pooled and plated at a density of 2000 cells/well in 100µl DMEM + 10% calf serum and 200µg/ml G418 + 6% CO2 in 96 well microtiter plates. […]. After three days in the presence of the nucleoside analog, Alamar Blue is added and 6 hours later the plates are scanned using a fluorometer as according to the manufacturer's protocol (Alamar Biosciences, Inc., Sacramento, CA). The plates are incubated a further 24 hours at 37°C and scanned again.
(§4) Determination of the fluorescence level of cells incubated in the presence of Alamar Blue directly relates to cell viability.

[9] = system: ts13 BHK tk- cells transfected with pCMV:132 (HSV-1 TK mutant 132); test: as above; type: cell-based, baby hamster; conditions: Mesocricetus auratus, 96 h; effective dose for 50% cell killing, after 4 days on nucleoside analog, pooled G418 resistant clones
Experimental: as §2, §3, §4

[10] = system: ts13 BHK tk- cells transfected with pCMV:30 (HSV-1 TK mutant 30); test: as above; type: cell-based, baby hamster; conditions: Mesocricetus auratus, 96 h; effective dose for 50% cell killing, after 4 days on nucleoside analog, pooled G418 resistant clones
Experimental: as §2, §3, §4

[11] = system: ts13 BHK tk- cells transfected with pCMV:HSVTK (wild-type HSV-1 TK); test: as above; type: cell-based, baby hamster; conditions: Mesocricetus auratus, 96 h; effective dose for 50% cell killing, after 4 days on nucleoside analog, pooled G418 resistant clones
Experimental: as §2, §3, §4

Nc1nc2c(ncn2COCCO)c(=O)[nH]1 [acyclovir]
pIC50 [1]: 6.12
pIC50 [2]: 4.85
pIC50 [3]: 5.22
pIC50 [4]: < 4.70
pIC50 [5]: < 4.70
pIC50 [6]: 6.96
pIC50 [7]: 6.59
pIC50 [8]: 5.90
pIC50 [9]: 4.60
pIC50 [10]: 4.74
pIC50 [11]: 4.60
